Laboratory results reported in PubChem BioAssay (NCI).
Several values for one entry are separate records, joined by “and”; a condition that tells them apart may be missing. Equal values may be shown once.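 How tested: cells in 96-well plates exposed to compound for 48 hours at five concentrations. Abbreviation: GI50, concentration required for 50% inhibition of growth. The concentration for full growth arrest is given as TGI.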 *1 amine or outer side, *2 acyl side, *3 side chain or, on linkers, in order; H or OH if unused. Where a SMILES comes first, the peptide text is derived from it. Bridges are numbered along the chain shown (N, C = ends). Roman numbers before positions name the chains, in order. [ ]: non-standard residue; d: D form. Actinocin(9to1) = Cc1c2oc3c(C)ccc(C(=O)[*:1])c3nc-2c(C(=O)[*:2])c(N)c1=O; NMeT = CN[CH](C(=O)O)[CH](C)O; Sar = CNCC(=O)O

Experiments:
Assay in all cases: NCI tumour cell line growth inhibition, 48 h
UACC-257 melanoma = tested on: UACC-257 melanoma
HCT-116 colon = tested on: HCT-116 colon
RPMI-8226 leukemia = tested on: RPMI-8226 leukemia
NCI-H226 lung = tested on: NCI-H226 lung
RXF 393 renal = tested on: RXF 393 renal
NCI-H522 lung = tested on: NCI-H522 lung
OVCAR-5 ovarian = tested on: OVCAR-5 ovarian
NCI-H460 lung = tested on: NCI-H460 lung
SF-268 CNS = tested on: SF-268 CNS
HOP-92 NSCLC = tested on: HOP-92 NSCLC

| SMILES | TGI (UACC-257 melanoma) | TGI (HCT-116 colon) [µM] | TGI (RPMI-8226 leukemia) | TGI (NCI-H226 lung) | TGI (RXF 393 renal) | TGI (NCI-H522 lung) | TGI (OVCAR-5 ovarian) [µM] | TGI (NCI-H460 lung) | TGI (SF-268 CNS) [µM] | TGI (HOP-92 NSCLC) [µM] | GI50 (UACC-257 melanoma) | GI50 (HCT-116 colon) [µM] | GI50 (RPMI-8226 leukemia) [µM] | GI50 (NCI-H226 lung) | GI50 (RXF 393 renal) [µM] | GI50 (NCI-H522 lung) [µM] | GI50 (OVCAR-5 ovarian) | GI50 (NCI-H460 lung) [µM] | GI50 (SF-268 CNS) [µM] | GI50 (HOP-92 NSCLC) [µM] |
| --- | --- | --- | --- | --- | --- | --- | --- | --- | --- | --- | --- | --- | --- | --- | --- | --- | --- | --- | --- | --- |
| O=C(CCc1nnc2s/c(=C\c3ccc(Cl)c(Cl)c3)c(=O)n12)Nc1ccc(Cl)c(Cl)c1 | > 100 µM | > 100 | 62.2 µM | > 100 µM | 74 µM | 65.3 µM | > 100 | > 100 µM | > 100 | > 100 | – | – | – | – | – | – | – | – | – | – |
| O=C1O/C(=C\c2ccccc2)N(c2ccccc2)C1=O | > 100 µM | > 100 | > 100 µM | > 100 µM | > 100 µM | > 100 µM | > 100 | > 100 µM | > 100 | > 100 | – | – | – | – | – | – | – | – | – | – |
| O=C1CC(=O)N(C(=O)c2nn(-c3ccc(Cl)cc3)cc2O)N1 | – | > 100 | 11.1 µM | > 96.6 µM | > 47 µM | 3.17 µM | > 100 | > 100 µM | > 100 | > 100 | 0.8 µM | 0.34 | 0.37 | 0.724 µM | 0.191 | 0.299 | 4.17 µM | 0.345 | 0.461 | 0.508 |
| O=C1O[C@H](c2ccccc2)[C@@H]2CC3(CCN12)OCCO3 | > 100 µM | > 100 | > 100 µM | > 100 µM | > 100 µM | 7.48 µM | > 100 | > 100 µM | > 100 | > 100 | – | – | – | – | – | – | – | – | – | – |
| CCN(CC)CCCNC(=O)C1COc2cc(-c3cc(=O)c4ccccc4o3)ccc2O1 (configuration not stated) | 50.1 µM | > 100 | > 100 µM | > 100 µM | > 100 µM | > 100 µM | > 100 | > 100 µM | > 100 | > 100 | – | – | – | – | – | – | – | – | – | – |
| NC1CCC(Nc2nc(NCc3ccc(-c4ccccc4O)nc3)c3ncn(C4CCCC4)c3n2)CC1 (configuration not stated) | 0.0729 µM | 1.15 | 0.0479 µM | 0.404 µM | 0.0356 µM | 0.01 µM | 1.38 | 1.17 µM | 0.344 | 0.077 | 0.0227 µM | 0.0317 | < 0.01 | 0.0486 µM | 0.0144 | < 0.01 | 0.0322 µM | 0.0337 | < 0.01 | 0.02 |
| COc1cc(-c2ccc(-c3ccc(C(=N)N)nc3)s2)cc(OC)c1OC | 4.07 µM | 2.87 | 3.97 µM | 31.1 µM | 4.83 µM | 4.14 µM | 5.38 | 4.39 µM | 33.2 | 8.37 | 2.15 µM | 1.47 | 1.67 | 10.8 µM | 2.19 | 1.8 | 2.1 µM | 2.1 | 14.6 | 1.91 |
| NC(=O)CCC(Nc1c2ccccc2nc2ccccc12)C(=O)O (configuration not stated) | > 100 µM | > 100 | > 100 µM | > 100 µM | > 100 µM | > 100 µM | > 100 | > 100 µM | > 100 | > 100 | – | – | – | – | – | – | – | – | – | – |
| CS(=O)(=O)CCNCc1ccc(-c2ccc3ncnc(Nc4ccc(OCc5ccccc5)c(Br)c4)c3c2)o1 | 9.3 µM | 11.8 | > 24.1 µM | > 25 µM | 8.19 µM | 10.6 µM | > 25 | > 25 µM | > 25 | 12.5 | 4.77 µM | 5.26 | 8.67 | 10.1 µM | 3.71 | 3.86 | 7.05 µM | 7.87 | 10.7 | 3.49 |
| Cc1c2oc3c(C)ccc(C(=O)NC4C(=O)NC(C(C)C)C(=O)N5CCCC5C(=O)N(C)CC(=O)N(C)C(C(C)O)C(=O)OC4C)c3nc-2c(C(=O)NC2C(=O)NC(C(C)C)C(=O)N3CCCC3C(=O)N(C)CC(=O)N(C)C(C(C)O)C(=O)OC2C)c(N)c1=O (configuration not stated) (I: TVP[Sar][NMeT] / II: TVP[Sar][NMeT]; ester I:1-I:C, II:1-II:C; linker I:N-II:N via Actinocin(9to1); configuration not given here) | 25.1 µM and > 1 µM | > 100 | 10.6 µM and > 1 µM | 26.8 µM and > 1 µM | 2.95 µM and > 1 µM | 1.53 µM and > 1 µM | > 43.4 | 4.95 µM and > 1 µM | > 63 | > 71.4 | 2.09 µM and > 1 µM | – | – | 1.47 µM and 0.618 µM | – | – | 4.29 µM and > 1 µM | – | – | – |
| O=C(O)CCCSc1ccccc1 | > 100 µM | > 100 | > 100 µM | > 100 µM | > 100 µM | > 100 µM | > 100 | > 100 µM | > 100 | > 100 | – | – | – | – | – | – | – | – | – | – |
| Cc1cccc(C)c1CO | > 100 µM | > 100 | > 100 µM | > 100 µM | > 100 µM | > 100 µM | > 100 | > 100 µM | > 100 | > 100 | – | – | – | – | – | – | – | – | – | – |
| CC(=O)CC(N)=O | > 100 µM | > 100 | > 100 µM | > 100 µM | > 100 µM | > 100 µM | > 100 | > 100 µM | > 100 | > 100 | – | – | – | – | – | – | – | – | – | – |
| CNC/C(Cl)=N/S(=O)(=O)c1ccc(C)cc1 | 25.4 µM | 21.1 | 33.5 µM | 59.5 µM | 9.34 µM | 24.9 µM | 47.5 | 27.2 µM | > 100 | 51.1 | – | – | – | – | – | – | – | – | – | – |
| N#Cc1ccc2c(c1)C(=O)c1c-2n(CCCCl)c(=O)c2cc([N+](=O)[O-])ccc12 | > 100 µM | > 100 | 20.6 µM | 89.9 µM | 37.7 µM | 24.3 µM | > 100 | > 100 µM | > 100 | 23.1 | > 100 µM | 1.82 | 3.44 | 9.1 µM | 11.9 | 3.07 | 65.4 µM | 0.395 | 1.49 | 5.06 |
